Legend:
Assay type in all cases: biochemical
[1] = target: CDK2/CyclinA (Homo sapiens (Human), UniProt P24941); assay: CDK2/CyclinA kinase assay (Nanosyn, Caliper microfluidic); conditions: Table 2; for IC50: read-out: CDK2/CycA IC50
Protocol: (§1) Selected compounds disclosed herein were tested in CDK4/cyclinD1, CDK6/CycD3 CDK2/CycA and CDK2/cyclinE kinase assays by Nanosyn (Santa Clara, Calif.) to determine their inhibitory effect on these CDKs. The assays were performed using microfluidic kinase detection technology (Caliper Assay Platform). The compounds were tested in 12-point dose-response format in singlicate at Km for ATP. Phosphoacceptor substrate peptide concentration used was 1 μM for all assays and Staurosporine was used as the reference compound for all assays. Specifics of each assay are as described below:
CDK2/CyclinA: Enzyme concentration: 0.2 nM; ATP concentration: 50 μM; Incubation time: 3 hr.

[2] = target: CDK2/CyclinE (Homo sapiens (Human), UniProt P24941); assay: CDK2/CyclinE kinase assay (Nanosyn, Caliper microfluidic); conditions: Table 2; for IC50: read-out: CDK2/CycE IC50
Protocol: as §1, with “assays.” for “assays. Specifics of each assay are as described below:”

[3] = target: CDK4/CyclinD1 (Homo sapiens (Human), UniProt P11802); assay: CDK4/CyclinD1 kinase assay (Nanosyn, Caliper microfluidic); conditions: Table 2; read-out: CDK4/CycD1 IC50
Sequence of CDK4/CyclinD1 (P11802 whole entry, species assumed): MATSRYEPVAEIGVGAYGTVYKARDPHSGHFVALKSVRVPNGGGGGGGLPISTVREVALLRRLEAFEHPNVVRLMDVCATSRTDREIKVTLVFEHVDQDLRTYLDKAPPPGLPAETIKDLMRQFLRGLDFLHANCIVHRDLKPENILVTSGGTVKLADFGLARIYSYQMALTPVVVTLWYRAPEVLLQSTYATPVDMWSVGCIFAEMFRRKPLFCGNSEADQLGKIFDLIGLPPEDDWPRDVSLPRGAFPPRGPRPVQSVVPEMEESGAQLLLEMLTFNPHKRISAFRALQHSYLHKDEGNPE
Sequence of CDK4/CyclinD1 (P24385 whole entry partner, species assumed): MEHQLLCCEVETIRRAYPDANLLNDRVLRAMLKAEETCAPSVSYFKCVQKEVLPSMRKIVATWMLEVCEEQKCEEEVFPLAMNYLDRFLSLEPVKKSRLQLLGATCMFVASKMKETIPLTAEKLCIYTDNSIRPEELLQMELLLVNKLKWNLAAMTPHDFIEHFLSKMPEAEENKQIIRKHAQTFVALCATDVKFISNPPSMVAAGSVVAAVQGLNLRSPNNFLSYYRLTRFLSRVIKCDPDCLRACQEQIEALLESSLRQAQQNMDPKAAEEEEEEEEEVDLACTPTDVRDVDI
Protocol: as §1
CDK4/CyclinD1: Enzyme concentration: 1 nM; ATP concentration: 200 μM; Incubation time: 10 hr.

SMILES	Fold Selectivity (CDK2/CycA/CDK4) [1]	IC50 [1]	Fold Selectivity (CDK2/CycE/CDK4) [2]	IC50 [2]	IC50 [3]
C[C@@H](O)CN1CCN(c2ccc(Nc3ncc4cc5n(c4n3)C3(CCCC3)CNC5=O)nc2)C[C@@H]1C [VV]	243	0.789 µM	809	2.63 µM	0.0033 µM
CCN(CC)C1CCN(c2ccc(Nc3ncc4cc5n(c4n3)C3(CCCCC3)CNC5=O)nc2)C1 (centres unmarked) [QQ]	627	2.57 µM	746	3.06 µM	0.0041 µM
CC(C)N1CCN(c2ccc(Nc3ncc4cc5n(c4n3)C3(CCCCC3)CNC5=O)nn2)CC1 [TT]	733	0.596 µM	1550	1.26 µM	0.0008 µM
CN(C)C1CCN(c2ccc(Nc3ncc4cc5n(c4n3)C3(CCCC3)CNC5=O)nc2)CC1 [YY]	–	–	1490	6.9 µM	0.0046 µM
C[C@@H]1CN(c2ccc(Nc3ncc4cc5n(c4n3)C3(CCCCC3)CNC5=O)nc2)CCN1C[C@@H](C)O [J]	6546	4.34 µM	7707	5.11 µM	0.0007 µM
C[C@@H]1CN(c2ccc(Nc3ncc4cc5n(c4n3)C3(CCCCC3)CNC5=O)nc2)C[C@H](C)N1C[C@@H](C)O [MM]	328	0.597 µM	1863	3.39 µM	0.0018 µM
CCN(CC)C1CCN(c2ccc(Nc3ncc4cc5n(c4n3)C3(CCCC3)CNC5=O)nc2)CC1 [LLL]	1425	4.53 µM	509	1.62 µM	0.0032 µM
C[C@@H](O)CN1CCN(c2ccc(Nc3ncc4cc5n(c4n3)C3(CCCCC3)CNC5=O)nc2)CC1 [S]	197	0.342 µM	718	1.25 µM	0.0017 µM
CC(C)(O)CN1CCN(c2ccc(Nc3ncc4cc5n(c4n3)C3(CCCC3)CNC5=O)nc2)CC1 [EEE]	405	0.943 µM	1266	2.95 µM	0.0023 µM
CC(C)N1CCN(c2ccc(Nc3ncc4cc5n(c4n3)C3(CCCC3)CNC5=O)nc2)CC1C (centres unmarked) [GGG]	–	–	555	7.61 µM	0.0137 µM
C[C@H](O)CN1CCN(c2ccc(Nc3ncc4cc5n(c4n3)C3(CCCCC3)CNC5=O)nc2)C[C@@H]1C [C]	428	0.616 µM	1333	1.92 µM	0.0014 µM
CC1CN(c2ccc(Nc3ncc4cc5n(c4n3)C3(CCCCC3)CNC5=O)nc2)CCN1CC(C)(C)O (centres unmarked) [W]	201	0.539 µM	1481	3.97 µM	0.0027 µM
CC1(C)CN(c2ccc(Nc3ncc4cc5n(c4n3)C3(CCCCC3)CNC5=O)nc2)CCN1CC1CC1 [H]	251	0.377 µM	1013	1.52 µM	0.0015 µM
CCN(CC)C1CCN(c2ccc(Nc3ncc4cc5n(c4n3)C3(CCCC3)CNC5=O)nc2)C1 (centres unmarked) [UU]	–	–	542	3.96 µM	0.0073 µM
CC(C)C1CN(c2ccc(Nc3ncc4cc5n(c4n3)C3(CCCCC3)CNC5=O)nc2)CCN1 (centres unmarked) [E]	202	0.204 µM	688	0.695 µM	0.001 µM
C[C@H]1CN(c2ccc(Nc3ncc4cc5n(c4n3)C3(CCCCC3)CNC5=O)nc2)CCN1 [KK]	396	0.915 µM	762	1.76 µM	0.0023 µM
CCN(CC)C1CCN(C(=O)c2ccc(Nc3ncc4cc5n(c4n3)C3(CCCCC3)CNC5=O)nc2)C1 (centres unmarked) [JJ]	–	–	204	0.288 µM	0.0014 µM
O=C1NCC2(CCCC2)n2c1cc1cnc(Nc3ccc(N4CCC(N5CCCCC5)CC4)cn3)nc12 [HHH]	–	–	419	2.84 µM	0.0068 µM
CC(C)N1CCN(c2ccc(Nc3ncc4cc5n(c4n3)C3(CCCC3)CNC5=O)nn2)CC1 [RRR]	–	–	1758	4.5 µM	0.0026 µM
CN(C)C1CCN(c2ccc(Nc3ncc4cc5n(c4n3)C3(CCCCC3)CNC5=O)nc2)CC1 [O]	1245	3.15 µM	–	–	–

SMILES	Fold Selectivity (CDK2/CycA/CDK4) [1]	IC50 [1]	Fold Selectivity (CDK2/CycE/CDK4) [2]	IC50 [2]	IC50 [3]
CCN(CC)C1CCN(C2CCN(c3ccc(Nc4ncc5cc6n(c5n4)C4(CCCCC4)CNC6=O)nc3)CC2)C1 (centres unmarked) [RR]	603	0.693 µM	1374	1.58 µM	0.0012 µM
CN1CCN(c2ccc(Nc3ncc4cc5n(c4n3)C3(CCCCC3)CNC5=O)nc2)CC1(C)C [D]	1629	1.5 µM	3779	3.48 µM	0.0009 µM
C[C@H]1CN(c2ccc(Nc3ncc4cc5n(c4n3)C3(CCCCC3)CNC5=O)nc2)CCN1CCC(C)(C)C [M]	621	1.41 µM	1004	2.28 µM	0.0023 µM
CC1(C)CN(c2ccc(Nc3ncc4cc5n(c4n3)C3(CCCCC3)CNC5=O)nc2)CCN1 [I]	568	1.13 µM	1065	2.12 µM	0.002 µM
CC1CN(c2ccc(Nc3ncc4cc5n(c4n3)C3(CCCCC3)CNC5=O)nc2)C[C@@H](C)N1CC1CC1 (some centres unmarked) [OO]	63	0.57 µM	442	3.98 µM	0.009 µM
CCN(CC)C1CCN(c2ccc(Nc3ncc4cc5n(c4n3)C3(CCCCC3)CNC5=O)nc2)CC1 [CC]	478	0.755 µM	791	1.25 µM	0.0016 µM
CC(C)N1CCN(Cc2ccc(Nc3ncc4cc5n(c4n3)C3(CCCCC3)CNC5=O)nc2)CC1 [EE]	289	1.11 µM	432	1.66 µM	0.0038 µM
O=C1NCC2(CCCCC2)n2c1cc1cnc(Nc3ccc(N4CCC(N5CCC(C(F)(F)F)CC5)CC4)cn3)nc12 [X]	2058	1.84 µM	12975	11.6 µM	0.0009 µM
O=C1NCC2(CCCCC2)n2c1cc1cnc(Nc3ccc(C(=O)N4CCNCC4)cn3)nc12 [Y]	25	0.061 µM	50	0.124 µM	0.0025 µM
CC(C)N1CCN(c2ccc(Nc3ncc4cc5n(c4n3)C3(CCCCC3)CNC5=O)nc2)C[C@H]1C [L]	260	1.49 µM	789	4.53 µM	0.0057 µM
CC(C)C[C@@H]1CNC(=O)c2cc3cnc(Nc4ccc(N5CCN(C)CC5)cn4)nc3n21 [XXX]	–	–	581	6.62 µM	0.0114 µM
CC(C)C[C@@H]1CNC(=O)c2cc3cnc(Nc4ccc(N5CCNCC5)cn4)nc3n21 [WWW]	–	–	135	2.5 µM	0.0185 µM
CCC(C)CN1[C@H](C)CN(c2ccc(Nc3ncc4cc5n(c4n3)C3(CCCC3)CNC5=O)nc2)C[C@@H]1C (some centres unmarked) [JJJ]	882	2.83 µM	1620	5.2 µM	0.0032 µM
CN(C)C1CCN(c2ccc(Nc3ncc4cc5n(c4n3)C3(CCCC3)CNC5=O)nn2)CC1 [TTT]	–	–	899	3.03 µM	0.0034 µM
O=C1NCC2(CCCCC2)n2c1cc1cnc(Nc3ccc(N4CCC(N5CCCCC5)CC4)cn3)nc12 [N]	–	–	1500	1.5 µM	0.001 µM
C[C@@H]1CN(c2ccc(Nc3ncc4cc5n(c4n3)C3(CCCC3)CNC5=O)nc2)C[C@H](C)N1 [DDD]	–	–	986	9.35 µM	0.0095 µM
CN1CCN(c2ccc(Nc3ncc4cc5n(c4n3)C3(CCCC3)CNC5=O)nc2)CC1 [ZZ]	–	–	949	9.96 µM	0.0105 µM
CC(C)[C@H]1CNC(=O)c2cc3cnc(Nc4ccc(N5CCNCC5)cn4)nc3n21 [UUU]	–	–	914	16.5 µM	0.018 µM
O=C1NCC2(CCCC2)n2c1cc1cnc(Nc3ccc(N4CCNCC4)cn3)nc12 [QQQ]	–	–	1057	11.1 µM	0.0105 µM
CC(C)N1CCN(c2ccc(Nc3ncc4cc5n(c4n3)C3(CCCC3)CNC5=O)nc2)CC1 [III]	–	–	626	3.77 µM	0.006 µM

From US9464092B2, “Transient protection of normal cells during chemotherapy” (G1 Therapeutics, Inc., priority 2013, dated 2016)
